{"source": "patent EP1024807B1", "about": "“USE OF THE COMPOUND 2-METHOXYPHENYL-1-METHYL-5P-METHYLBENZOYL-PYRROL-2-ACETAMIDO ACETATE FOR THE PRODUCTION OF AN ANTI-INFLAMMATORY DRUG WITH PREVENTION OF GASTRIC HYPERSECRETION AND RENAL IMPAIRMENT” (MEDOSAN Ricerca S.r.l., priority 1997, dated 1999)", "key": {"gastric PGE2": {"tested_on": "gastric PGE2", "assay": "Effect on gastric PGE2 in the rat", "type": "in vivo", "source_text": "Moreover, as with all the NSAIDs currently aveilable, it inhibits gastric PGE2 in the rat, albeit to a lesser degree than ASA (Table 7)."}, "Rats [1]": {"tested_on": "Rats", "assay": "Diuresis in normally hydrated rats", "type": "in vivo", "protocol": "In the course of various studies conducted on animals to show the lack of renal impairment, a test was carried out to compare the diuresis in normally hydrated rats treated orally for 8 consecutive days with amtolmeting guacyl and diclofenac, which is also a NSAID. […] It is to be stressed that the behaviour of diclofenac is completely in line with the behaviour of a NSAID as known in the art, that is to say to markedly reduce the diuresis, while that of amtolmeting guacyl is completely unforeseeable.\nRepeated doses (one per day) for 8 days increased diuresis in the treated rats by 35% (see fig. 13)."}, "[2]": {"tested_on": "post-traumatic arthralgia", "assay": "Clinical comparison in post-traumatic arthralgia", "type": "in vivo, man", "source_text": "The same can be said in the treatment of post-traumatic arthralgia."}, "patients [3]": {"tested_on": "patients", "conditions": "336 patients, Diclofenac 100mg, cited from earlier work; for Suspensions of treatment: number of patients, 180 days of treatment; for % of totale: suspensions of treatment, 180 days"}, "Rats [4]": {"tested_on": "Rats", "assay": "Carrageenan pleurisy, exudate volume at 4 hours", "type": "in vivo", "protocol": "Compounds were administered orally 1 hour prior to and 1 hour post pleurisy induction in a volume of 0.5 ml 1% gum tragacanth. Indomethacin was used at 3 mg/kg. MED 15 was used at 25, 50 and 100 mg/kg.\nA 1% solution of carrageenan in sterile saline was prepared. The solution was placed in an incubator at 37°C for half an hour to allow complete hydration of the carrageenan. The solution was then mixed to homogeneity.\nA 21Gx40mm syringe needle was reduced in length to 5mm and fitted to a 1ml syringe containing the irritant. Rats were lightly anaesthetised with halothane. Each animal was placed on its left side. The skin over the thorax was lifted with and a 1cm incision made through the skin with a pair of scissors. The wound was opened to expose the underlying muscle. Using a scalpel, a 2-3mm incision was made into the muscle of the 5th-6th intercostal space. A volume of 0.15ml of carrageenan solution was then injected into the pleural cavity. The wound was closed with a 11mm Michel clip and the animal allowed to recover from the anaesthetic. Groups of animals were killed 4 hours after pleurisy induction.\nLavage solution: One part of 3.15% trisodium citrate solution, mixed with nine parts of Hank's balanced salt solution.\nRats were killed by over exposure to carbon dioxide. For each rat the skin over the thorax was moistened with IMS alcohol. The skin over the sternum was then lifted and a 5cm cut made, to expose the musculature of the upper abdomen and thoracic cavity. The muscle overlying the xiphisternum was lifted with tissue forceps and a 1cm cut made through the muscle to reveal the cartilage. This was then lifted and the diaphragm perforated just beneath the cartilage. Two cuts were then made through the rib cage either side of the cartilage to form a flap which could be folded back to expose the thoracic cavity.\nUsing a syringe, 1ml of lavage fluid was introduced into the thoracic cavity. The fluid was aspirated 2-3 times with a 3ml pastette to wash the cavity, before being collected into separate 10ml conical-based plastic test-tubes. Any blood contaminated fluids were rejected.\nThe mass of each tube with fluid was determined. By subtracting the mass of an empty tube from these values, and assuming a density for the fluid of 1g/cm^3, the fluid volume was quantified.\nResults were analysed by ANOVA followed by Bonferroni T-test. Values of p<0.05 were considered significant.\nDosing was one hour prior to and one hour post pleurisy induction and inflammation was assessed at 4 hours."}, "patients [5]": {"tested_on": "patients", "assay": "Clinical trials: tolerability, adverse events and suspensions of treatment", "type": "in vivo, man", "conditions": "31 comparative and 6 non-comparative clinical trials, 1596 patients", "source_text": "Interest in the amtolmetin guacyl molecule arose following a thorough analysis of the results of 31 comparative and 6 non-comparative clinical trials involving 1596 patients. […] Turthermore the physician, being aware of administering an NSAID, was expecting adverse events and could not be expected to be an impartial observer. The few cases of gastro-intestinal phenomena reported with amtolmetin guacyl were transitory and in no event accompanied by the presence of occult blood in the stools. Moreover, even in the presence of a reported side-effect it was almost never necessary to suspend treatment (0.4% of suspensions).\nFollowing are summarized the results obtained on a total of 1596 patients in 37 clinical trials.\nConfirmation of the above described advantages is the very low incidence of treatment suspension for adverse events found in clinics (Table 17), which is not the case for most of NSAIDs known in the art (Table 18)."}, "Rats [6]": {"tested_on": "Rats", "assay": "Adjuvant arthritis (joint diameter and patellar bone mass)", "type": "in vivo", "conditions": "for % Change: ([left-right]/right)X100", "protocol": "The drugs were administered daily by oral gavage for 4 days (day 0-3); piroxicam and MED 15 were dissolved in 5% Gum arabic + 0.01% Tween 80, and administered in a volume of 0.5ml. Piroxicam was administered as 3mg/kg and MED 15 was administered as 25, 50 and 100mg/kg doses. Table 8 bis illustrating dosage regimes. L=left stifle joint, R=Right stifle joint.\nUnder halothane anaesthesia, rats received 200µg of heat-killed finely ground Mycobactyerium tubercolosis in 25µl (80mg/10ml sterile saline) injected intra-articulary into the left stifle joint. The contralateral joint received 25µl 0.9% sterile saline. Control animals received 25µl of 0.9% sterile saline in both knees. SGE 50µl microsyringes with a volume lock calibrated at 25µl were used with 30G stainless steel needles. Solutions were prepared sterile, and aseptic technique was used throughout, with sterilisation of syringes between groups.\nThe rats were killed by carbon dioxide suffocation. The body weight was noted and the skin overlying the stifle joints was divided and the joint diameters assessed in mm using Mitutoyo vernier callipers (530-312, 0.02mm).\nThe patellae were dissected, weighed (Sartorius, 0.01mg) and then immersed in 1ml digestion buffer (see below) to remove soft tissue.\nDigestive buffer was prepared fresh to the following formula; disodium hydrogen orthophosphate 20mM, EDTA 1mM and diothiothreitol at 2mM. Papain (EC 3.4.22.2) was added at a concentration of 6U/ml. Each patella was digested in 1ml of digestive buffer at 56°C for 4 hours. The residual paterllar bones were dried (100°C 24 hours) and weighed (Sartorius 0.01mg).\nResults are presented as follows: left and right parameter alone, the difference between arthritic and contralateral control joint (left-right); and % difference between arthritic and control joints ([left-right]/right]X100).\nCalculations were carried out using the spreadsheet program Lotus 123. Statistical comparisons were made between the absolute differences using INSTAT Mann Whitney unpaired two-tailed statistical test."}}}
{"molecule": "CC(=O)Oc1ccccc1C(=O)O", "note": "[ASA, acetyl salicylic acid, reference compound]", "values": [{"measurement": "%inhibition", "setting": "gastric PGE2; gastric PGE2 versus controls", "result": 86.7, "unit": "%"}, {"measurement": "PGE2 (ngtg^Δ tissue)±S.E.", "setting": "gastric PGE2; gastric tissue, rat, controls 108.7±23.9", "result": "14.4±4.5 nanograms for gram of tissue"}]}
{"molecule": "O=C(O)Cc1ccccc1Nc1c(Cl)cccc1Cl", "note": "[Diclofenac, reference compound]", "values": [{"measurement": "decreased diuresis", "setting": "Rats [1]; single dose, average", "result": 10, "unit": "%"}, {"measurement": "diuresis", "setting": "Rats [1]; treated orally for 8 consecutive days, fig. 13", "result": "clear decrease"}, {"measurement": "duration of effect", "setting": "[2]", "result": 3, "unit": "h"}, {"measurement": "latency time", "setting": "[2]", "result": 20, "unit": "min"}, {"measurement": "time to reach peak effect", "setting": "[2]", "result": 1, "unit": "h"}, {"measurement": "Suspensions of treatment", "setting": "patients [3]", "result": 63}, {"measurement": "% of totale", "setting": "patients [3]", "result": "18,7%"}]}
{"molecule": "COc1ccc2c(c1)c(CC(=O)O)c(C)n2C(=O)c1ccc(Cl)cc1", "note": "[Indomethacin, reference compound]", "values": [{"measurement": "Exudate volume", "setting": "Rats [4]; 3mg/kg orally 1 hour prior to and 1 hour post induction, 4 hour, control 0.94±0.04", "result": "0.47 ± 0.11", "unit": "mL"}, {"measurement": "reduction in exudate volume", "setting": "Rats [4]; 3mg/kg, compared to gum tragacanth control", "result": 50, "unit": "%"}, {"measurement": "incidence of adverse events involving the stomach", "setting": "patients [5]", "result": "≥ 30", "unit": "%"}]}
{"molecule": "Cc1cnc(NC(=O)C2=C(O)c3ccccc3S(=O)(=O)N2C)s1", "note": "[Meloxicam]", "values": [{"measurement": "Suspensions of treatment", "setting": "patients [3]", "result": 42}, {"measurement": "% of totale", "setting": "patients [3]", "result": "12,4%"}]}
{"molecule": "CN1C(C(=O)Nc2ccccn2)=C(O)c2ccccc2S1(=O)=O", "note": "[Piroxicam, reference compound]", "values": [{"measurement": "Swelling Diameter difference (L-R)", "setting": "Rats [6]; 3mg/kg daily oral, day 0-3", "result": 1.67, "unit": "mm"}, {"measurement": "Joint diameter (mm) Left", "setting": "Rats [6]; 3mg/kg daily oral, day 0-3, left = arthritic joint", "result": 10.41, "unit": "mm"}, {"measurement": "Joint diameter (mm) Right", "setting": "Rats [6]; 3mg/kg daily oral, day 0-3, right = saline control joint", "result": 8.74, "unit": "mm"}, {"measurement": "% Change", "setting": "Rats [6]; joint diameter, 3mg/kg daily oral", "result": 19.15, "unit": "%"}, {"measurement": "% Change", "setting": "Rats [6]; patellar bone mass, 3mg/kg daily oral", "result": -27.74, "unit": "%"}, {"measurement": "protection against bone loss", "setting": "Rats [6]; patellar bone mass, arthritic groups", "result": "greatest protection against bone loss"}, {"measurement": "Bone loss Left-Right", "setting": "Rats [6]; patellar bone, 3mg/kg daily oral", "result": -1.31, "unit": "mg"}, {"measurement": "Bone mass (mg) Left", "setting": "Rats [6]; patellar bone, 3mg/kg daily oral, left = arthritic joint", "result": 3.07, "unit": "mg"}, {"measurement": "Bone mass (mg) Right", "setting": "Rats [6]; patellar bone, 3mg/kg daily oral, right = saline control joint", "result": 4.21, "unit": "mg"}]}
